According to patent publication US11332459B2 (TEIJIN PHARMA LIMITED, priority 2017, dated 2022):
Where a name gives a salt, the structure may show the parent alone.

Molecular target: T1, human TRPC6 (Homo sapiens, UniProt Q9Y210)
T1 construct: expressed in transfected cells
T1 sequence (Q9Y210 1-931): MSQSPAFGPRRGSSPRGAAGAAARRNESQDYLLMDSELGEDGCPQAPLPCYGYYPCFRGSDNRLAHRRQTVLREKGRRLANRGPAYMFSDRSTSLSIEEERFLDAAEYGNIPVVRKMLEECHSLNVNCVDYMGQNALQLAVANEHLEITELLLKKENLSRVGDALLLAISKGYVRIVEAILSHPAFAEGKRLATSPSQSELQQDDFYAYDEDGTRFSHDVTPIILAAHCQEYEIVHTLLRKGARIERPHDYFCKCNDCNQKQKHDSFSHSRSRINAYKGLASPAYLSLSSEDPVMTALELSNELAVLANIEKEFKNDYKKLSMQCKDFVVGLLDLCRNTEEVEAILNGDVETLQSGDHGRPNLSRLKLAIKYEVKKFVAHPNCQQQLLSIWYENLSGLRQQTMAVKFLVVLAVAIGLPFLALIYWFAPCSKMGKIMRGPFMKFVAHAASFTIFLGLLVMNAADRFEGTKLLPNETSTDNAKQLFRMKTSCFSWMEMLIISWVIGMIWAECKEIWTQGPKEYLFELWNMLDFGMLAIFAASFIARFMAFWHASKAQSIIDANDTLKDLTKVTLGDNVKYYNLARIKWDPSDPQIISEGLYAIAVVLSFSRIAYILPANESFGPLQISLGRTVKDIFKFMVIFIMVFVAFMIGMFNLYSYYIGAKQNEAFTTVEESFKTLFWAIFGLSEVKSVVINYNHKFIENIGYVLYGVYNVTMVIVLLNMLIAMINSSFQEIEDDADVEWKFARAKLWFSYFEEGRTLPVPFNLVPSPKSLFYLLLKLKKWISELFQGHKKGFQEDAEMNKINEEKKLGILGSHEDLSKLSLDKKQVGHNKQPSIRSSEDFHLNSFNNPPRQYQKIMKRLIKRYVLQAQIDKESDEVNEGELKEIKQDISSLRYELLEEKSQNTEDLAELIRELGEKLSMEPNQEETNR
Experiment: TRPC6 calcium flux assay (FLIPR, OAG-stimulated calcium influx)
Type: cell-based
Conditions: HEK293 cells stably transfected with human TRPC6, read-out: hTRPC6 Potency
Outline: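 HEK293 cells stably expressing human TRPC6, loaded with calcium dye 90–120 min at RT, then given compound for 25 min before OAG (50 uM final, 0.5% DMSO) in HEPES buffer pH 7.2 with 2 mM CaCl2. Background-subtracted FLIPR peak over 180 s normalized to OAG vs buffer; IC50 from dose plot.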

CO[C@@H]1CCN(c2nc3ccc(F)cc3n2Cc2ncc(Cl)cn2)C[C@H]1N (single isomer, unassigned) [Example 456]
IC50: 0.00844 µM

CNC(=O)C1CN(C(=O)Cn2c(N3CC[C@@H](F)[C@H](N)C3)nc3cc(F)c(F)cc32)CCO1 (stereo partly drawn) [Example 644, 4-(2-(2-((3R,4R)-3-amino-4-fluoropiperidin-1-yl)-5,6-difluoro-1H-benzo[d]imidazol-1-yl)acetyl)-N-methylmorpholine-2-carboxamide]
IC50: 1.91 µM

N[C@@H]1CN(c2nc3cc(F)c(F)cc3n2Cc2cccc(C(F)(F)F)c2)CC[C@H]1F [Example 365, (3R,4R)-1-(5,6-difluoro-1-(3-(trifluoromethyl)benzyl)-1H-benzimidazol-2-yl)-4-fluoro-3-piperidinamine]
IC50: 2.96 µM

N#Cc1ccc(Cn2c(N3CC[C@@](O)(CN)C3)nc3ccccc32)cc1 [Example 176, (R)-4-((2-(3-(aminomethyl)-3-hydroxypyrrolidin-1-yl)-1H-benzo[d]imidazol-1-yl)methyl)benzonitrile 2,2,2-trifluoroacetate]
IC50: 2.33 µM

N#Cc1ccc2c(c1)nc(N1CC[C@@H](F)[C@H](N)C1)n2Cc1cnc(C#N)cn1 [Example 250, 2-((3R,4R)-3-amino-4-fluoro-1-piperidinyl)-1-((5-cyano-2-pyrazinyl)methyl)-1H-benzimidazole-5-carbonitrile]
IC50: 0.0785 µM

C[C@H](c1cc(F)ccc1F)n1c(N2CC[C@@H](F)[C@H](N)C2)nc2cc(F)c(F)cc21 [Example 334, (3R,4R)-1-(1-((1R)-(2,5-difluorophenyl)ethyl)-5,6-difluoro-1H-benzimidazol-2-yl)-4-fluoro-3-piperidinamine]
IC50: 3.54 µM

N#Cc1ccc(Cn2c(N3CC[C@@H](F)[C@H](N)C3)nc3ccc(Cl)cc32)cc1 [Example 420, 4-((2-((3R,4R)-3-amino-4-fluoropiperidin-1-yl)-6-chloro-1H-benzo[d]imidazol-1-yl)methyl)benzonitrile hydrochloride]
IC50: 0.0006 µM

C[C@H](NC(=O)Cn1c(N2CC[C@@H](F)[C@H](N)C2)nc2ccc(F)cc21)c1ccccn1 [Example 666, 2-(2-((3R,4R)-3-amino-4-fluoropiperidin-1-yl)-6-fluoro-1H-benzo[d]imidazol-1-yl)-N-((S)-1-(pyridin-2-yl)ethyl)acetamide]
IC50: 0.687 µM

CN(CC1CCS(=O)(=O)C1)C(=O)Cn1c(N2CC[C@@H](F)[C@H](N)C2)nc2cc(F)c(F)cc21 (mixture of isomers) [Example 652, 2-(2-((3R,4R)-3-amino-4-fluoropiperidin-1-yl)-5,6-difluoro-1H-benzo[d]imidazol-1-yl)-N-((1,1-dioxidotetrahydrothiophen-3-yl)methyl)-N-methylacetamide]
IC50: > 3.75 µM

CN(CC(F)F)C(=O)Cn1c(N2CC[C@@H](F)[C@H](N)C2)nc2cc(F)c(F)cc21 [Example 601, 2-(2-((3R,4R)-3-amino-4-fluoropiperidin-1-yl)-5,6-difluoro-1H-benzo[d]imidazol-1-yl)-N-(2,2-difluoroethyl)-N-methylacetamide]
IC50: 0.00556 µM

N[C@@H]1CN(c2nc3cc(F)c(F)cc3n2CC(=O)N(Cc2cccs2)C2CCS(=O)(=O)C2)CC[C@H]1F (mixture of isomers) [Example 522, 2-(2-((3R,4R)-3-amino-4-fluoropiperidin-1-yl)-5,6-difluoro-1H-benzo[d]imidazol-1-yl)-N-(1,1-dioxidotetrahydrothiophen-3-yl)-N-(thiophen-2-ylmethyl)acetamide]
IC50: 0.762 µM

C[C@H](c1ccc(C#N)cc1)n1c(N2CCC[C@@H](N)C2)nc2ccccc21 [Example 398, 4-((R)-1-(2-((R)-3-aminopiperidin-1-yl)-1H-benzo[d]imidazol-1-yl)ethyl)benzonitrile]
IC50: 0.0874 µM

N#Cc1ccc(Cn2c(N3CCC(F)(F)[C@H](N)C3)nc3ccc(C(F)(F)F)cc32)nc1 [Example 108, 6-((2-((3R)-3-amino-4,4-difluoro-1-piperidinyl)-6-(trifluoromethyl)-1H-benzimidazol-1-yl)methyl)-3-pyridinecarbonitrile]
IC50: 0.000433 µM

COc1ccc2c(c1)nc(N1CC[C@@H](F)[C@H](N)C1)n2Cc1ccc(C#N)cn1 [Example 145, 6-((2-((3R,4R)-3-amino-4-fluoropiperidin-1-yl)-5-methoxy-1H-benzo[d]imidazol-1-yl)methyl)nicotinonitrile hydrochloride]
IC50: 0.014 µM

COc1ccc2c(c1)nc(N1CC[C@@H](F)[C@H](N)C1)n2CC(=O)N(C)C [Example 450, 2-(2-((3R,4R)-3-amino-4-fluoropiperidin-1-yl)-5-methoxy-1H-benzo[d]imidazol-1-yl)-N,N-dimethylacetamide]
IC50: > 3.75 µM

C[C@@H](c1ccc(C#N)cn1)n1c(N2CCC[C@H](N)C2)nc2ccccc21 [Example 296, 6-((S)-1-(2-((S)-3-aminopiperidin-1-yl)-1H-benzo[d]imidazol-1-yl)ethyl)nicotinonitrile hydrochloride]
IC50: 0.00765 µM

N#Cc1ccc(Cn2c(N3CCC4(CNC4)C3)nc3ccccc32)nc1 [Example 97, 6-((2-(2,6-diazaspiro[3.4]octan-6-yl)-1H-benzo[d]imidazol-1-yl)methyl)nicotinonitrile]
IC50: > 3.75 µM

Cc1csc(Cn2c(N3CC[C@@H](F)[C@H](N)C3)nc3cc(F)c(F)cc32)n1 [Example 568, (3R,4R)-1-(5,6-difluoro-1-((4-methylthiazol-2-yl)methyl)-1H-benzo[d]imidazol-2-yl)-4-fluoropiperidin-3-amine]
IC50: 0.0481 µM

C[C@@H](c1cc(F)ccc1F)n1c(N2CC[C@@H](F)[C@H](N)C2)nc2cc(F)c(F)cc21 [Example 335, (3R,4R)-1-(1-((1S)-1-(2,5-difluorophenyl)ethyl)-5,6-difluoro-1H-benzimidazol-2-yl)-4-fluoro-3-piperidinamine]
IC50: > 3.75 µM

N#Cc1ccc(Cn2c(N3CC[C@@H](F)[C@H](N)C3)nc3cc(F)cc(F)c32)cc1 [Example 156]
IC50: 0.0617 µM

CC[C@H](c1ccc(C#N)cn1)n1c(N2CCC[C@H](N)C2)nc2ccccc21 [Example 299, 6-((R)-1-(2-((S)-3-aminopiperidin-1-yl)-1H-benzo[d]imidazol-1-yl)propyl)nicotinonitrile hydrochloride]
IC50: 0.00876 µM

N[C@@H]1CN(c2nc3cc(F)c(F)cc3n2Cc2ccccc2C(F)(F)F)CC[C@H]1F [Example 352, (3R,4R)-1-(5,6-difluoro-1-(2-(trifluoromethyl)benzyl)-1H-benzimidazol-2-yl)-4-fluoro-3-piperidinamine]
IC50: 0.328 µM

COc1ccc2nc(N3CCC[C@H](N)C3)n(Cc3ccc(C#N)cc3)c2n1 [Example 404, (S)-4-((2-(3-aminopiperidin-1-yl)-5-methoxy-3H-imidazo[4,5-b]pyridin-3-yl)methyl)benzonitrile hydrochloride]
IC50: 0.00167 µM

CC1CCN1C(=O)Cn1c(N2CC[C@@H](F)[C@H](N)C2)nc2cc(F)c(F)cc21 (stereo partly drawn) [Example 600, 2-(2-((3R,4R)-3-amino-4-fluoropiperidin-1-yl)-5,6-difluoro-1H-benzo[d]imidazol-1-yl)-1-(2-methylazetidin-1-yl)ethanone]
IC50: 0.00538 µM

N#Cc1ccc(Cn2c(N3CCC[C@H](N)C3)nc3ccccc32)cc1 [Example 167, (S)-4-((2-(3-aminopiperidin-1-yl)-1H-benzo[d]imidazol-1-yl)methyl)benzonitrile]
IC50: 0.00197 µM

N[C@@H]1CCCN(c2nc3ccccc3n2Cc2ccc(F)cc2)C1 [Example 387, (R)-1-(1-(4-fluorobenzyl)-1H-benzo[d]imidazol-2-yl)piperidin-3-amine]
IC50: 5.36 µM

CN(CC(F)(F)F)C(=O)Cn1c(N2CC[C@H](N)C2)nc2ccc(F)cc21 [Example 489, (S)-2-(2-(3-aminopyrrolidin-1-yl)-6-fluoro-1H-benzo[d]imidazol-1-yl)-N-methyl-N-(2,2,2-trifluoroethyl)acetamide]
IC50: > 3.75 µM

C[C@H]1COCCN1C(=O)Cn1c(N2CC[C@@H](F)[C@H](N)C2)nc2ccc(F)cc21 [Example 678, 2-(2-((3R,4R)-3-amino-4-fluoropiperidin-1-yl)-6-fluoro-1H-benzo[d]imidazol-1-yl)-1-((S)-3-methylmorpholino)ethan-1-one]
IC50: 0.0983 µM

N#Cc1ccc2nc(N3CC[C@@H](F)[C@H](N)C3)n(Cc3ncc(Cl)cn3)c2c1 [Example 187, 2-((3R,4R)-3-amino-4-fluoropiperidin-1-yl)-1-((5-chloropyrimidin-2-yl)methyl)-1H-benzo[d]imidazole-6-carbonitrile]
IC50: 0.00159 µM
